# In US20250144067A1, “PERSONALIZED STARVATION THERAPY FOR CANCER” (Faeth Therapeutics, Inc., priority 2021, published 2025):
# Structures can show the parent of a compound that is named as a salt. Where two headings read alike, the source gives them in different places.
# Key:
# [1] = tested on: NCI-H292 lung cancer cells; assay: FDA drug screening, complete media vs cholesterol-free media with simvastatin (TABLE 2); assay type: cell-based, human
# [2] = tested on: NCI-H292 lung cancer cells; assay: FDA drug screening, complete media vs cholesterol-free media without statin (TABLE 1); assay type: cell-based, human
# [3] = NCI-H292 cells, FDA drug library screen, cholesterol-free media with simvastatin 0.04 μM
# [4] = NCI-H292 cells, FDA drug library screen, complete media
# [5] = complete media minus cholesterol-free media + simvastatin, >0 enhanced anti-cancer activity, about 0 neutral, <0 antagonist
# [6] = NCI-H292 cells, cholesterol-free media without statin
# [7] = complete vs cholesterol-free media, greater than 0 enhanced anti-cancer activity, about 0 neutral, below 0 antagonists
# [8] = complete media vs cholesterol-free media + simvastatin (0.04 μM), >0 enhanced anti-cancer activity, about 0 neutral, <0 antagonist
# [9] = Complete minus Cholesterol-free, greater than 0 enhanced anti-cancer activity, about 0 neutral, below 0 antagonist
# [10] = NCI-H292 cells, FDA drug library screen, cholesterol-free media without statin
# [11] = NCI-H292 cells, cholesterol-free media with simvastatin 0.04 μM, FDA drug library screen (TABLE 2)
# [12] = NCI-H292 cells, complete media, FDA drug library screen (TABLE 2)
# [13] = complete media minus cholesterol-free media + simvastatin (0.04 μM), >0 enhanced anti-cancer activity, about 0 neutral, <0 antagonist
# [14] = Complete minus Cholesterol-free, >0 enhanced anti-cancer activity, about 0 neutral, <0 antagonist
# [15] = NCI-H292 cells, FDA library drug in cholesterol-free media with simvastatin 0.04 μM
# [16] = NCI-H292 cells, FDA library drug in complete media
# [17] = NCI-H292 cells in cholesterol-free media without statin
# [18] = NCI-H292 cells in complete media
# [19] = NCI-H292 cells, drug in cholesterol-free media with simvastatin 0.04 μM
# [20] = NCI-H292 cells, drug in complete media
# [21] = NCI-H292 cells, cholesterol-free media without statin, FDA drug library screen
# [22] = NCI-H292 cells, complete media, FDA drug library screen
# [23] = NCI-H292 cells, cholesterol-free media with simvastatin 0.04 μM, cell growth value in FDA drug screen
# [24] = NCI-H292 cells, complete media, cell growth value in FDA drug screen
# [25] = complete media vs cholesterol-free media + simvastatin (0.04 μM), […]
# [26] = complete vs cholesterol-free media, […]
molecule,measurement,setting,value
OC(CCCN1CCCCC1)(c1ccccc1)c1ccccc1 [Diphenidol (hydrochloride)],Cholesterol-free media + simvastatin (0.04 μM),[1]; [3],0.9412
same,Complete Media,[1]; [4],1.206
same,Difference,[1]; [5],0.26
same,Cholesterol-free,[2]; [6],1.3
same,Complete,"[2]; NCI-H292 cells, complete media",0.8776
same,Difference,[2]; [7],−0.42
N=C(N)NC(=O)c1nc(Cl)c(N)nc1N [Amiloride (hydrochloride)],Cholesterol-free media + simvastatin (0.04 μM),[1]; [3],1.016
same,Complete Media,[1]; [4],0.8717
same,Difference,[1]; [8],−0.14
same,Difference,[2]; [9],−0.17
same,Cholesterol-free,[2]; [10],1.642
same,Complete,[2]; [4],1.47
N#Cc1ccc2[nH]cc(CCCCN3CCN(c4ccc5oc(C(=O)O)cc5c4)CC3)c2c1 [Vilazodone carboxylic acid],Cholesterol-free media + simvastatin (0.04 μM),[1]; [11],1.218
same,Complete Media,[1]; [12],1.232
same,Difference,[1]; [13],0.01
same,Difference,[2]; [14],−0.19
same,Cholesterol-free,[2]; [6],0.9582
same,Complete,"[2]; NCI-H292 cells, complete media",0.7696
Doxazosin (mesylate),Cholesterol-free media + simvastatin (0.04 μM),[1]; [15],1.325
same,Complete Media,[1]; [16],0.9839
same,Difference,[1]; [8],−0.34
same,Difference,"[2]; Complete minus Cholesterol-free, greater than 0 enhanced anti-cancer activity, about 0 neutral, below 0 antagonists",−0.61
same,Cholesterol-free,[2]; [17],1.69
same,Complete,[2]; [18],1.083
CO/N=C(\C(=O)N[C@@H]1C(=O)N2C(C(=O)[O-])=C(CSc3nc(C)c(CC(=O)[O-])s3)CS[C@H]12)c1csc(N)n1.[Na+].[Na+] [Cefodizime (sodium)],Cholesterol-free media + simvastatin (0.04 μM),[1]; [19],1.29
same,Complete Media,[1]; [20],1.088
same,Difference,[1]; [8],−0.20
same,Difference,[2]; [14],0.06
same,Cholesterol-free,[2]; [21],1.009
same,Complete,[2]; [22],1.069
CC(C)(C)NC(=O)[C@@H]1C[C@@H]2CCCC[C@@H]2CN1C[C@@H](O)[C@H](Cc1ccccc1)NC(=O)[C@H](CC(N)=O)NC(=O)c1ccc2ccccc2n1 [Saquinavir],Cholesterol-free media + simvastatin (0.04 μM),[1]; [19],0.9867
same,Complete Media,[1]; [20],0.801
same,Difference,[1]; [8],−0.19
same,Cholesterol-free,[2]; [6],1.314
same,Complete,"[2]; NCI-H292 cells, complete media",0.9252
same,Difference,[2]; [7],−0.39
CN1C(=O)OC(C)(C)C1=O [Trimethadione],Cholesterol-free media + simvastatin (0.04 μM),[1]; [23],1.017
same,Complete Media,[1]; [24],1.08
same,Difference,[1]; [5],0.06
same,Difference,[2]; [14],−0.23
same,Cholesterol-free,[2]; [6],1.085
same,Complete,"[2]; NCI-H292 cells, complete media",0.857
Lenvatinib (mesylate),Cholesterol-free media + simvastatin (0.04 μM),[1]; [11],1.17
same,Complete Media,[1]; [12],1.154
same,Difference,[1]; [13],−0.02
same,Difference,[2]; [9],−0.10
same,Cholesterol-free,[2]; [10],0.845
same,Complete,[2]; [4],0.7401
Cc1nnc(SCC2=C(C(=O)O)N3C(=O)[C@@H](NC(=O)Cn4cc(Cl)c(=O)c(Cl)c4)[C@H]3SC2)s1 [Cefazedone],Cholesterol-free media + simvastatin (0.04 μM),[1]; [3],1.153
same,Complete Media,[1]; [4],1.591
same,Difference,"[1]; complete media minus cholesterol-free media + simvastatin, […]",0.44
same,Difference,"[2]; Complete minus Cholesterol-free, […]",−0.67
same,Cholesterol-free,[2]; [17],1.61
same,Complete,[2]; [18],0.9409
NC12CC3CC(CC(C3)C1)C2 [Amantadine (hydrochloride)],Cholesterol-free media + simvastatin (0.04 μM),[1]; [19],1.14
same,Complete Media,[1]; [20],0.9614
same,Difference,[1]; [25],−0.18
same,Cholesterol-free,[2]; [21],0.9565
same,Complete,[2]; [22],1.419
same,Difference,[2]; [26],0.46
NC[C@@H]1O[C@H](O[C@H]2[C@@H](O)[C@H](O[C@@H]3[C@@H](O)[C@H](N)C[C@H](N)[C@H]3O[C@H]3O[C@H](CN)[C@@H](O)[C@H](O)[C@H]3N)O[C@@H]2CO)[C@H](N)[C@@H](O)[C@@H]1O.O=S(=O)(O)O [Neomycin (sulfate)],Cholesterol-free media + simvastatin (0.04 μM),[1]; [3],0.8549
same,Complete Media,[1]; [4],1.021
same,Difference,[1]; [5],0.17
same,Difference,[2]; [9],−0.17
same,Cholesterol-free,[2]; [10],1.592
same,Complete,[2]; [4],1.421
O=C(O[C@H]1C[N+]2(CCCOc3ccccc3)CCC1CC2)C(O)(c1cccs1)c1cccs1.[Br-] [Aclidinium (Bromide)],Cholesterol-free media + simvastatin (0.04 μM),[1],0.8781
same,Complete Media,[1],0.7357
same,Difference,[1],−0.14
same,Cholesterol-free,[2],1.253
same,Complete,[2],0.9873
same,Difference,[2],−0.27
CCCOC(=O)c1cc(O)c(O)c(O)c1 [Propyl gallate],Cholesterol-free media + simvastatin (0.04 μM),[1]; [19],1.306
same,Complete Media,[1]; [20],1.135
same,Difference,[1]; [8],−0.17
same,Cholesterol-free,[2]; [6],1.541
same,Complete,"[2]; NCI-H292 cells, complete media",1.125
same,Difference,[2]; [7],−0.42
N[C@@H](CCC(=O)O)C(=O)O [(S)-Glutamic acid],Cholesterol-free media + simvastatin (0.04 μM),[1]; [3],0.9378
same,Complete Media,[1]; [4],0.8445
same,Difference,[1]; [25],−0.09
same,Cholesterol-free,[2]; [21],1.299
same,Complete,[2]; [22],1.635
same,Difference,[2]; [26],0.34
Cc1ccc(C(C)C)c(O)c1 [Thymol],Cholesterol-free media + simvastatin (0.04 μM),[1]; [19],1.184
same,Complete Media,[1]; [20],0.956
same,Difference,[1]; [8],−0.23
same,Cholesterol-free,[2]; [6],1.354
same,Complete,"[2]; NCI-H292 cells, complete media",1.041
same,Difference,[2]; [7],−0.31
CCOc1cc2ncc(C#N)c(Nc3ccc(OCc4ccccn4)c(Cl)c3)c2cc1NC(=O)/C=C/CN(C)C [Neratinib],Cholesterol-free media + simvastatin (0.04 μM),[1],0.3387
same,Complete Media,[1],0.3007
same,Difference,[1],−0.04
same,Cholesterol-free,[2],0.06707
same,Complete,[2],0.1268
same,Difference,[2],0.06
O=C(O)Cc1ccccc1Nc1c(Cl)cccc1Cl [Diclofenac],Cholesterol-free media + simvastatin (0.04 μM),[1]; [15],1.089
same,Complete Media,[1]; [16],0.821
same,Difference,[1]; [8],−0.27
same,Difference,[2]; [14],−0.25
same,Cholesterol-free,[2]; [6],1.167
same,Complete,"[2]; NCI-H292 cells, complete media",0.917
CC[C@@H]1/C=C(\C)C[C@H](C)C[C@H](OC)[C@H]2O[C@@](O)(C(=O)C(=O)N3CCCC[C@H]3C(=O)O[C@H](/C(C)=C/[C@@H]3CC[C@H](Cl)[C@H](OC)C3)[C@H](C)[C@@H](O)CC1=O)[C@H](C)C[C@@H]2OC [Pimecrolimus],Cholesterol-free media + simvastatin (0.04 μM),[1]; [19],1.1
same,Complete Media,[1]; [20],0.8909
same,Difference,[1]; [8],−0.21
same,Difference,[2]; [14],−0.26
same,Cholesterol-free,[2]; [6],1.022
same,Complete,"[2]; NCI-H292 cells, complete media",0.7576
OCc1ccc(O[C@@H]2O[C@H](CO)[C@@H](O)[C@H](O)[C@H]2O)cc1 [Gastrodin],Cholesterol-free media + simvastatin (0.04 μM),[1],1.131
same,Complete Media,[1],1.355
same,Difference,[1],0.22
same,Cholesterol-free,[2],1.466
same,Complete,[2],1.162
same,Difference,[2],−0.30
O=C(c1ccc(F)c(F)c1Nc1ccc(I)cc1F)N1CC(O)([C@@H]2CCCCN2)C1 (racemic) [Cobimetinib (racemate)],Cholesterol-free media + simvastatin (0.04 μM),[1]; [3],0.2662
same,Complete Media,[1]; [4],0.405
same,Difference,[1]; [5],0.14
same,Difference,[2]; [14],−0.02
same,Cholesterol-free,[2]; [21],0.2982
same,Complete,[2]; [22],0.2751
Tolterodine (tartrate),Cholesterol-free media + simvastatin (0.04 μM),[1],1.183
same,Complete Media,[1],1.127
same,Difference,[1],−0.06
same,Cholesterol-free,[2],1.873
same,Complete,[2],0.9529
same,Difference,[2],−0.92
C=CC(=O)Nc1cc(Nc2nccc(-c3cn(C4CC4)c4ccccc34)n2)c(OC)cc1N(C)CCN(C)C [Almonertinib (hydrochloride)],Cholesterol-free media + simvastatin (0.04 μM),[1]; [23],0.6861
same,Complete Media,[1]; [24],0.7198
same,Difference,[1]; [5],0.03
same,Difference,[2]; [14],−0.07
same,Cholesterol-free,[2]; [21],0.4284
same,Complete,[2]; [22],0.3618
